# In patent US11053204B2, “Pyrimidinyloxy benzene derivatives as herbicides” (FMC Corporation, priority 2015, dated 2021):
# Assays:
# Assay type in all cases: in vivo
# [1] = test system: Italian ryegrass (Lolium multiflorum); test: Test A preemergence, visual injury rating; conditions: 0 to 100 scale (0 no effect, 100 complete control)
# Method in brief: (§1)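 Injury scores run from 0, no effect, to 100, complete control, judged by eye against untreated plants roughly 10 days after treatment. Chemicals carried a surfactant in a non-phytotoxic solvent and went onto loam–sand soil preemergence or onto one- to two-leaf seedlings postemergence.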
# [2] = test system: barnyardgrass (Echinochloa crus-galli); test: Test A preemergence, visual injury rating; conditions: 0 to 100 scale (0 no effect, 100 complete control)
# Method in brief: as §1
# [3] = test system: giant foxtail (Setaria faberii); test: Test A preemergence, visual injury rating; conditions: 0 to 100 scale (0 no effect, 100 complete control)
# Method in brief: as §1
# [4] = test system: ragweed (common ragweed, Ambrosia elatior); test: Test A preemergence, visual injury rating; conditions: 0 to 100 scale (0 no effect, 100 complete control)
# Method in brief: as §1
# [5] = test system: blackgrass (Alopecurus myosuroides); test: Test C preemergence, plant response rating; conditions: Preemergence
# Method in brief: (§2)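 Pre-emergence: seeds sown in loam soil–sand blend or silt loam and sprayed with test chemicals in a non-phytotoxic solvent mixture with surfactant. Post-emergence: plants 2 to 18 cm (1- to 4-leaf stage) in peat-based potting medium, same formulation. Greenhouse 13 to 15 d; visual rating 0 (no effect) to 100 (complete control) versus controls.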
# corn (Zea mays) = test: Test C preemergence, plant response rating; conditions: Preemergence
# Method in brief: as §2
# [6] = test system: crabgrass, large (large crabgrass, Digitaria sanguinalis); test: Test C preemergence, plant response rating; conditions: Preemergence
# Method in brief: as §2
# [7] = test system: foxtail, giant (giant foxtail, Setaria faberii); test: Test C preemergence, plant response rating; conditions: Preemergence
# Method in brief: as §2
# [8] = test system: lambsquarters (Chenopodium album); test: Test C preemergence, plant response rating; conditions: Preemergence
# Method in brief: as §2
# [9] = test system: morningglory (Ipomoea coccinea); test: Test C preemergence, plant response rating; conditions: Preemergence
# Method in brief: as §2
# [10] = test system: nutsedge, yellow (yellow nutsedge, Cyperus esculentus); test: Test C preemergence, plant response rating; conditions: Preemergence
# Method in brief: as §2
# [11] = test system: oilseed rape (Brassica napus); test: Test C preemergence, plant response rating; conditions: Preemergence
# Method in brief: as §2
# [12] = test system: ragweed (common ragweed, Ambrosia elatior); test: Test C preemergence, plant response rating; conditions: Preemergence
# Method in brief: as §2
# [13] = test system: ryegrass, Italian (Italian ryegrass, Lolium multiflorum); test: Test C preemergence, plant response rating; conditions: Preemergence
# Method in brief: as §2
# soybean (Glycine max) = test: Test C preemergence, plant response rating; conditions: Preemergence
# Method in brief: as §2
# [14] = test system: velvetleaf (Abutilon theophrasti); test: Test C preemergence, plant response rating; conditions: Preemergence
# Method in brief: as §2
# [15] = test system: waterhemp (common waterhemp, Amaranthus rudis); test: Test C preemergence, plant response rating; conditions: Preemergence
# Method in brief: as §2
# [16] = test system: wheat (winter wheat, Triticum aestivum); test: Test C preemergence, plant response rating; conditions: Preemergence
# Method in brief: as §2
compound,measurement,setting,value
O=C(OCCC(F)(F)F)c1c(Br)cccc1Oc1ncc(Br)cn1 [Compound 33],"Ryegrass, Italian plant response rating",[1]; 125 g ai/ha,40
same,"Ryegrass, Italian plant response rating",[1]; 500 g ai/ha,100
same,Barnyardgrass plant response rating,[2]; 125 g ai/ha,100
same,Barnyardgrass plant response rating,[2]; 500 g ai/ha,100
same,"Foxtail, Giant plant response rating",[3]; 125 g ai/ha,100
same,"Foxtail, Giant plant response rating",[3]; 500 g ai/ha,100
same,Ragweed plant response rating,[4]; 125 g ai/ha,0
same,Ragweed plant response rating,[4]; 500 g ai/ha,20
same,"Plant response rating, Blackgrass","[5]; 62 g ai/ha, scale of 0 to 100",70
same,"Plant response rating, Blackgrass","[5]; 125 g ai/ha, scale of 0 to 100",90
same,"Plant response rating, Blackgrass","[5]; 16 g ai/ha, scale 0 to 100",0
same,"Plant response rating, Blackgrass","[5]; 31 g ai/ha, scale 0 to 100",10
same,"Plant response rating, Corn","corn (Zea mays); 62 g ai/ha, scale of 0 to 100",10
same,"Plant response rating, Corn","corn (Zea mays); 125 g ai/ha, scale of 0 to 100",10
same,"Plant response rating, Corn","corn (Zea mays); 16 g ai/ha, scale 0 to 100",0
same,"Plant response rating, Corn","corn (Zea mays); 31 g ai/ha, scale 0 to 100",0
same,"Plant response rating, Crabgrass, Large","[6]; 62 g ai/ha, scale of 0 to 100",100
same,"Plant response rating, Crabgrass, Large","[6]; 125 g ai/ha, scale of 0 to 100",100
same,"Plant response rating, Crabgrass, Large","[6]; 16 g ai/ha, scale 0 to 100",75
same,"Plant response rating, Crabgrass, Large","[6]; 31 g ai/ha, scale 0 to 100",98
same,"Plant response rating, Foxtail, Giant","[7]; 62 g ai/ha, scale of 0 to 100",98
same,"Plant response rating, Foxtail, Giant","[7]; 125 g ai/ha, scale of 0 to 100",100
same,"Plant response rating, Foxtail, Giant","[7]; 16 g ai/ha, scale 0 to 100",60
same,"Plant response rating, Foxtail, Giant","[7]; 31 g ai/ha, scale 0 to 100",95
same,"Plant response rating, Lambsquarters","[8]; 125 g ai/ha, scale of 0 to 100",85
same,"Plant response rating, Lambsquarters","[8]; 16 g ai/ha, scale 0 to 100",25
same,"Plant response rating, Lambsquarters","[8]; 31 g ai/ha, scale 0 to 100",60
same,"Plant response rating, Lambsquarters","[8]; 62 g ai/ha, scale 0 to 100",80
same,"Plant response rating, Morningglory","[9]; 125 g ai/ha, scale of 0 to 100",40
same,"Plant response rating, Morningglory","[9]; 16 g ai/ha, scale 0 to 100",0
same,"Plant response rating, Morningglory","[9]; 31 g ai/ha, scale 0 to 100",0
same,"Plant response rating, Morningglory","[9]; 62 g ai/ha, scale 0 to 100",25
same,"Plant response rating, Nutsedge, Yellow","[10]; 125 g ai/ha, scale of 0 to 100",5
same,"Plant response rating, Nutsedge, Yellow","[10]; 16 g ai/ha, scale 0 to 100",0
same,"Plant response rating, Nutsedge, Yellow","[10]; 31 g ai/ha, scale 0 to 100",0
same,"Plant response rating, Nutsedge, Yellow","[10]; 62 g ai/ha, scale 0 to 100",5
same,"Plant response rating, Oilseed Rape","[11]; 125 g ai/ha, scale of 0 to 100",100
same,"Plant response rating, Oilseed Rape","[11]; 16 g ai/ha, scale 0 to 100",50
same,"Plant response rating, Oilseed Rape","[11]; 31 g ai/ha, scale 0 to 100",80
same,"Plant response rating, Oilseed Rape","[11]; 62 g ai/ha, scale 0 to 100",85
same,"Plant response rating, Ragweed","[12]; 125 g ai/ha, scale of 0 to 100",50
same,"Plant response rating, Ragweed","[12]; 16 g ai/ha, scale 0 to 100",55
same,"Plant response rating, Ragweed","[12]; 31 g ai/ha, scale 0 to 100",35
same,"Plant response rating, Ragweed","[12]; 62 g ai/ha, scale 0 to 100",40
same,"Plant response rating, Ryegrass, Italian","[13]; 125 g ai/ha, scale of 0 to 100",85
same,"Plant response rating, Ryegrass, Italian","[13]; 16 g ai/ha, scale 0 to 100",0
same,"Plant response rating, Ryegrass, Italian","[13]; 31 g ai/ha, scale 0 to 100",30
same,"Plant response rating, Ryegrass, Italian","[13]; 62 g ai/ha, scale 0 to 100",30
same,"Plant response rating, Soybean","soybean (Glycine max); 125 g ai/ha, scale of 0 to 100",30
same,"Plant response rating, Soybean","soybean (Glycine max); 16 g ai/ha, scale 0 to 100",15
same,"Plant response rating, Velvetleaf","[14]; 125 g ai/ha, scale of 0 to 100",100
same,"Plant response rating, Velvetleaf","[14]; 16 g ai/ha, scale 0 to 100",5
same,"Plant response rating, Velvetleaf","[14]; 31 g ai/ha, scale 0 to 100",30
same,"Plant response rating, Velvetleaf","[14]; 62 g ai/ha, scale 0 to 100",55
same,"Plant response rating, Waterhemp","[15]; 125 g ai/ha, scale of 0 to 100",100
same,"Plant response rating, Waterhemp","[15]; 16 g ai/ha, scale 0 to 100",100
same,"Plant response rating, Waterhemp","[15]; 31 g ai/ha, scale 0 to 100",100
same,"Plant response rating, Waterhemp","[15]; 62 g ai/ha, scale 0 to 100",100
same,"Plant response rating, Wheat","[16]; 125 g ai/ha, scale of 0 to 100",5
same,"Plant response rating, Wheat","[16]; 16 g ai/ha, scale 0 to 100",0
same,"Plant response rating, Wheat","[16]; 31 g ai/ha, scale 0 to 100",0
same,"Plant response rating, Wheat","[16]; 62 g ai/ha, scale 0 to 100",0
